In patent publication US10633408B2, “Nucleoside-lipid compounds with pH-sensitive dialkylorthoester chains and their use for transportation or vectorization of at least one therapeutic agent” (UNIVERSITE DE BORDEAUX, priority 2015, dated 2020):

Assays:
[1] = DLS of nucleolipid/DOPE liposomes and siRNA complexes; assay type: physicochemical; conditions: for size of siRNA complexes with siRNA RECQL4 / size of siRNA complexes with siRNA luciferase: 10 pmol siRNA + 2 nmol nucleolipid/DOPE, serum-free medium; for diameter of liposomes: nucleolipid/DOPE liposomes in water
Procedure: (§1) Compound 6 and DOPE were mixed with molar ratio and dissolved in methylene chloride. The solvent was evaporated with nitrogen flow while stirring to prepare lipids films. This preparation was rehydrated with 1 mL of water, them submitted to Vortex, and the tube was put in ultrasonic bath (37 kHz) during 15-20 min at 15° C. The same experiment was carried out with DOTAU/DOPE (1:1) Liposomes were analysed by DLS (Malvern, Zetasizer) and measured 74 nm of diameters for orthoester and 48 nm for DOTAU. 10 pmol of siRNA were added to 2 nmol of orthoester/DOPE in 100 μL of PRMI 1640 serum-free medium. After submitting to Vortex, this solution was incubated 20 min at RT and transferred in wells. The siRNA orthoester/DOPE complexes were analysed by DLS and measured at 90 nm with siRNA luciferase and at 100 nm with siRNA RECQL4 for orthoester (69 nm and 63 nm, respectively for DOTAU).

RECQL4 = assay: Inhibition of RECQL4 by siRNA transfection, qPCR normalized with GAPDH; assay type: cell-based, human; conditions: MDA-MB-134 breast cancer cells, 72 h, nucleolipid/DOPE complexes, N/P 1/5 and 1/10
Procedure: as §1, with “RECQL4 is a human RecQ helicase implicated in three syndromes (Rothmund-Thompson, […] and Baller-Gerold) displaying accelerating aging, developmental abnormalities and cancer's predisposition. […] In this example, the efficacy of compound 6 prepared in example 2 in the transfection of siRNA targeting RECQL4 is evaluated. Compound” for “Compound”, “(1:1)” for “(1:1) Liposomes were analysed by DLS (Malvern, Zetasizer) and measured 74 nm of diameters for orthoester and 48 nm for DOTAU.”, “DOTAU). 2.10^5 MDA-MB-134 cells by well were added in 500 μL final volume. […] RNA was converted in cDNA by Reverse Transcription with QuantiTect kit (Qiagen). Then, a quantitative PCR was performed with 25 ng of cDNA, the master mix GoTaq qPCR (Promega) and specific primers (1 μM). […]” for “DOTAU).”

[2] = Liposome characterization by dynamic light scattering and zeta potential; assay type: physicochemical; conditions: liposomes of the compound alone, 1 mg/mL in Milli-Q water; for Pdi (polydispersity) of liposomes / d (diameter) of liposomes: DLS
Procedure: Zeta potential measurements and Dynamic light scattering (DLS) measurements of liposomes were performed with a MalvernNanoZS device.
100 μL of stock solutions of anionic or cationic compounds of formula (I) prepared in examples 2 and 6 (10 mg/mL in dichloromethane) were placed in glass tubes, dried under dry N2 and then desiccated under vacuum. Milli-Q Water was added to the dried lipid to obtain liposomes dispersions (1 mg/mL) after vortex agitation and sonication for 10 min.
The size distribution by intensity measured by dynamic light scattering (DLS) of liposomes prepared from compound 11 prepared in example 6 (anionic compounds of formula (I)) is shown on FIG. 3A, and of liposomes prepared from compound 6 prepared in example 2 (cationic compound of formula (I)) is shown on FIG. 3B.

[3] = 1H NMR kinetic study of orthoester hydrolysis; assay type: physicochemical; conditions: for rate of hydrolysis of the orthoester function, effect of pH: MeOD:phosphate buffer (1:2), pH 5 vs 7.4, 37° C.
Procedure: 1HNMR experiments were performed to study the kinetics of hydrolysis for both anionic and cationic compounds of formula (I) at pH 5 and 7.4 by measuring the percentage of hydrolyzed compound versus time.
10 mg of cationic compound (6) prepared in example 2 or anionic compound (11) prepared in example 6 were dissolved in a mixture of MeOD:Buffer phosphate (1:2) (pH 5 or 7.4), mixed and placed in a NMR tube. ^1H NMR Experiment was performed at 37° C. at 300 MHz on a BRUKER® Avance DPX-300.
After hydrolysis of the orthoester function, the chemical shifts of the thymidine CH3 protons are shifted upfield and downfield for compound 6 and 11, respectively. Thus, the percentage of hydrolysis versus time was followed by integrating the signals of the CH3 protons.

[4] = Small-angle X-ray scattering (SAXS) of compound 6/DOPC; assay type: physicochemical; conditions: with DOPC (mol ratio 50/50), incubation at pH=5 and 37° C.
Procedure: […] SAXS experiments were carried out at the Centre de Recherche Paul Pascal, Pessac, France on a NanoStar (Bruker). With a sample to detector distance equal to 650 mm and a radiation wavelength of A=0.154 nm, the scattering wave vectors in reciprocal space ranged from q=0.16 nm^−1 and 3.4 nm^−1.
The beam size at the sample position was 0.45 mm (0). Images were captured by the HiStar (Bruker).
The array of detection totalizes 1024×1024 pixels, each one with 100 μm for side. Data were radially averaged and corrected for background scattering by using the software SAXS-Bruker. All experiments were carried out on thermally equilibrated samples at 25° C., which was obtained by keeping the sample holders under water circulation at controlled temperature.

Compound | size of siRNA complexes with siRNA RECQL4 [1] | size of siRNA complexes with siRNA luciferase [1] | diameter of liposomes [1] | expression of RECQL4 after siRNA transfection (RECQL4) | ζ (zeta potential) of liposomes [2] | Pdi (polydispersity) of liposomes [2] | d (diameter) of liposomes [2] | rate of hydrolysis of the orthoester function, effect of pH [3] | SAXS profile before and after incubation [4] | rate of hydrolysis relative to cationic compound 6 ([3]; at both pH 5 and 7, 37° C.)
CCCCCCCC/C=C\CCCCCCCC(=O)OC1C(C[N+](C)(C)C)OC(n2ccc(=O)[nH]c2=O)C1OC(=O)CCCCCCC/C=C\CCCCCCCC.Cc1ccc(S(=O)(=O)[O-])cc1 (stereo not drawn) [DOTAU, N-[5′-(2′,3′-dioleoyl)uridine]-N′,N′,N′-trimethylammonium tosylate, reference compound] | 63 nm | 69 nm | 48 nm | not able to transfect the siRNA targeting RECQL4 |  |  |  |  |  | 
CCCCCCCCCCCCCCCCOC(OCCCCCCCCCCCCCCCC)O[C@H]1C[C@H](n2cc(C)c(=O)[nH]c2=O)O[C@@H]1C[N+](C)(C)C.CS(=O)(=O)[O-] [Compound 6, 1-((2R,3S,5R)-3-(bis(hexadecyloxy)methoxy)-5-(5-methyl-2,4-dioxo-3,4-dihydropyrimidin-1 (2H)-yl)tetrahydrofuran-2-yl)-N,N,N-trimethyl-methanaminium methanesulfonate] | 100 nm | 90 nm | 74 nm | able to inhibit the expression of RECQL4 | 51.4 mV | 0.221 | 135.9 nm | higher rates of hydrolysis at pH=5 | evolves from vesicular to multilamellar systems | 
CCCCCCCCCCCCCCCCOC(OCCCCCCCCCCCCCCCC)O[C@H]1C[C@H](n2cc(C)c(=O)[nH]c2=O)O[C@@H]1COP(=O)(O)OC [Compound 11, ((2R,3S,5R)-3-(bis(hexadecyloxy)methoxy)-5-(5-methyl-2,4-dioxo-3,4-dihydropyrimidin-1(2H)-yl)tetrahydrofuran-2-yl)methyl methyl phosphate] |  |  |  |  | −43.3 mV | 0.163 | 100.4 nm | higher rates of hydrolysis at pH=5 |  | increased hydrolysis rates
